Data published in US12383548B2, “Antibacterial quinolines” (priority 2019, dated 2025).
≈ marks a conversion by molar mass, not a printed value. Structures can show the parent of a compound that is named as a salt. Where two headings read alike, the source gives them in different places.

Key:
[1] = tested on: susceptible H37Rv M. tuberculosis, strain ATCC 25618; experiment: Mycobacterium tuberculosis susceptibility assay REMA (resazurin microtiter assay); assay type: cell-based; set-up: REMA MIC: unit not given here; details: for MIC: Mycobacterium tuberculosis, 144 h, read-out: REMA MIC
HepG2 cell line = experiment: in vitro cytotoxicity assay (MTS tetrazolium reduction, cell viability); assay type: cell-based; details: Homo sapiens, HepG2, 48 h
Method: In an embodiment, the in vitro cytotoxicity assay was carried out as follows. […] The assay was performed in 96 well plates for 48 h at 37° C. and 5% CO2 in incubation medium (low glucose DMEM with Glutamax, 10% FBS, 1% Pen/Strep and DMSO). Cells were exposed to 8 different compound concentrations in successive dilutions (usually, base 2), plus a positive control (a compound in a concentration known to decrease cell viability above 50%) and a negative control (incubation medium). Six replicate wells were assayed for each condition. Compound stock solutions were prepared in DMSO at 20 mM, whenever possible, filter sterilized, aliquoted and stored at −20° C. The maximum compound concentrations tested depend on its solubility in incubation medium, and on the maximum DMSO percentage allowable without loss of cell viability. At the end of the incubation period, tetrazolium reagent was added (CellTiter 96® AQueous Solution from Promega); cells were incubated for another 3 hours in order to promote tetrazolium reduction to formazan by viable cells. The amount of soluble formazan produced was evaluated by 490 nm absorbance reading in a spectrophotometer plate reader.

[2] = Table 1, MTB growth, H37Rv, 6 days at 37° C., Middlebrook 7H9
[3] = Table 2, MTB growth, H37Rv, 6 days at 37° C., Middlebrook 7H9
[4] = Table 1, cytotoxicity, MTS, read-out: IC50

Compound: O=C(O)C1CCN(c2ccc3cc(-c4ccc(OC(F)(F)F)cc4)ccc3n2)CC1 [Compound 2, 1-(6-(4-(Trifluoromethoxy)phenyl)quinolin-2-yl)piperidine-4-carboxylic acid]
- MIC [1, 2]: < 7.8 µM
- MIC [1, 3]: < 7.8 µM

Compound: CCOC(=O)C1CCN(c2ccc3cc(-c4ccc(O)cc4)ccc3n2)CC1 [Compound 3, Ethyl 1-(6-(4-hydroxyphenyl)quinolin-2-yl)piperidine-4-carboxylate]
- MIC [1, 2]: 7.8 to 15.6 µM (≈ 2.94 to 5.87 µg/mL)
- IC50 (HepG2 cell line; [4]): > 100 µM

Compound: CCOC(=O)C1CCN(c2ccc3cc(-c4cnc(OC)nc4)ccc3n2)CC1 [Compound 4, ethyl 1-(6-(2-methoxypyrimidin-5-yl)quinolin-2-yl)piperidine-4-carboxylate]
- MIC [1, 2]: < 7.8 µM
- MIC [1, 3]: < 7.8 µM
- IC50 (HepG2 cell line; [4]): > 100 µM
- IC50 (HepG2 cell line; Table 2, cytotoxicity, MTS, read-out: IC50): > 100 µM

Compound: CCOC(=O)C1CCN(c2ccc3cc(-c4cccc(F)c4)ccc3n2)CC1 [Compound 8, ethyl 1-(6-(3-fluorophenyl)quinolin-2-yl)piperidine-4-carboxylate]
- MIC [1, 2]: < 7.8 µM
- MIC [1, 3]: < 7.8 µM

Compound: CC(C)Oc1ccc(-c2ccc3nc(N4CCC(C(=O)O)CC4)ccc3c2)cc1F [Compound 10, 1-(6-(3-fluoro-4-isopropoxyphenyl)quinolin-2-yl)piperidine-4-carboxylic acid]
- MIC [1, 2]: < 7.8 µM
- MIC [1, 3]: < 7.8 µM

Compound: O=C(O)C1CCN(c2ccc3cc(-c4cccc(F)c4)ccc3n2)CC1 [Compound 11, 1-(6-(3-fluorophenyl)quinolin-2-yl)piperidine-4-carboxylic acid]
- MIC [1, 2]: < 7.8 µM
- MIC [1, 3]: < 7.8 µM

Compound: CCOC(=O)C1CCN(c2ccc3cc(-c4ccc(OC)nc4)ccc3n2)CC1 [Compound 14, ethyl 1-(6-(6-methoxypyridin-3-yl)quinolin-2-yl)piperidine-4-carboxylate]
- MIC [1, 2]: < 7.8 µM
- MIC [1, 3]: < 7.8 µM

Compound: CCOC(=O)C1CCN(c2ccc3cc(-c4ccncc4)ccc3n2)CC1 [Compound 15, ethyl 1-(6-(pyridin-4-yl)quinolin-2-yl)piperidine-4-carboxylate hydrochloride]
- MIC [1]: 7.8 to 15.6 µM
- IC50 (HepG2 cell line): > 100 µM

Compound: CCOC(=O)C1CCN(c2ccc3cc(-c4ccco4)ccc3n2)CC1 [Compound 16, ethyl 1-(6-(furan-2-yl)quinolin-2-yl)piperidine-4-carboxylate]
- MIC [1, 2]: 7.8 to 15.6 µM (≈ 2.73 to 5.47 µg/mL)
- IC50 (HepG2 cell line; [4]): > 100 µM

Compound: O=C(O)C1CCN(c2ccc3cc(-c4ccncc4)ccc3n2)CC1 [Compound 18, 1-(6-(pyridin-4-yl)quinolin-2-yl)piperidine-4-carboxylic acid hydrochloride]
- MIC [1]: 7.8 to 15.6 µM

Compound: CCOC(=O)C1CCN(c2ccc3cc(-c4ccc(OC)cc4Cl)ccc3n2)CC1 [Compound 19, ethyl 1-(6-(2-chloro-4-methoxyphenyl)quinolin-2-yl)piperidine-4-carboxylate]
- MIC [1, 2]: < 7.8 µM
- MIC [1, 3]: < 7.8 µM

Compound: CCOC(=O)C1CCN(c2ccc3cc(-c4ccc(OC)cc4)ccc3n2)CC1 [Compound 20, ethyl 1-(6-(4-methoxyphenyl)quinolin-2-yl)piperidine-4-carboxylate]
- MIC [1]: 7.8 to 15.6 µM (≈ 3.05 to 6.09 µg/mL)
- IC50 (HepG2 cell line): > 100 µM

Compound: COc1ccc(-c2ccc3nc(N4CCC(C(=O)O)CC4)ccc3c2)cc1 [Compound 21, 1-(6-(4-methoxyphenyl)quinolin-2-yl)piperidine-4-carboxylic acid]
- MIC [1, 2]: < 7.8 µM
- MIC [1, 3]: < 7.8 µM

Compound: COc1cccc(-c2ccc3nc(N4CCC(C(=O)O)CC4)ccc3c2)c1 [Compound 22, 1-(6-(3-methoxyphenyl)quinolin-2-yl)piperidine-4-carboxylic acid]
- MIC [1, 2]: 7.8 to 15.6 µM (≈ 2.83 to 5.65 µg/mL)
- IC50 (HepG2 cell line; [4]): > 100 µM

Compound: COc1ccc(-c2ccc3nc(N4CCC(C(=O)O)CC4)ccc3c2)c(Cl)c1 [Compound 23, 1-(6-(2-chloro-4-methoxyphenyl)quinolin-2-yl)piperidine-4-carboxylic acid]
- MIC [1, 2]: 7.8 to 15.6 µM (≈ 3.1 to 6.19 µg/mL)

Compound: CCOC(=O)C1CCN(c2ccc3cc(-c4ccc(OC)cc4C(F)(F)F)ccc3n2)CC1 [Compound 24, ethyl 1-(6-(4-methoxy-2-(trifluoromethyl)phenyl)quinolin-2-yl)piperidine-4-carboxylate hydrochloride]
- MIC [1]: < 7.8 µM
- REMA MIC [1, 3]: ++++ (<7.8)

Compound: CCOC(=O)C1CCN(c2ccc3cc(-c4cccc(OC(F)(F)F)c4)ccc3n2)CC1 [Compound 25, ethyl 1-(6-(3-(trifluoromethoxy)phenyl)quinolin-2-yl)piperidine-4-carboxylate]
- MIC [1, 2]: < 7.8 µM
- MIC [1, 3]: < 7.8 µM

Compound: O=C(O)C1CCN(c2ccc3cc(-c4cccc(OC(F)(F)F)c4)ccc3n2)CC1 [Compound 29, 1-(6-(3-(trifluoromethoxy)phenyl)quinolin-2-yl)piperidine-4-carboxylic acid]
- MIC [1, 2]: < 7.8 µM
- MIC [1, 3]: < 7.8 µM

Compound: CCOC(=O)C1CCN(c2ccc3cc(-c4cccc(OC)c4)ccc3n2)CC1 [Compound 30, ethyl 1-(6-(3-methoxyphenyl)quinolin-2-yl)piperidine-4-carboxylate]
- MIC [1, 2]: 7.8 to 15.6 µM (≈ 3.05 to 6.09 µg/mL)
- IC50 (HepG2 cell line; [4]): > 100 µM

Compound: CCOC(=O)C1CCN(c2ccc3cc(-c4ccc(F)nc4)ccc3n2)CC1 [Compound 35, ethyl 1-(6-(6-fluoropyridin-3-yl)quinolin-2-yl)piperidine-4-carboxylate]
- MIC [1, 2]: 7.8 to 15.6 µM (≈ 2.96 to 5.92 µg/mL)
- IC50 (HepG2 cell line; [4]): > 100 µM

Compound: CCOC(=O)C1CCN(c2ccc3cc(-c4ccnc(F)c4)ccc3n2)CC1 [Compound 37, ethyl 1-(6-(2-fluoropyridin-4-yl)quinolin-2-yl)piperidine-4-carboxylate]
- MIC [1, 2]: 7.8 to 15.6 µM (≈ 2.96 to 5.92 µg/mL)
- IC50 (HepG2 cell line; [4]): 50 to 100 µM

Compound: CCOC(=O)C1CCN(c2ccc3cc(-c4ccnc(C)c4)ccc3n2)CC1 [Compound 40, ethyl 1-(6-(2-methylpyridin-4-yl)quinolin-2-yl)piperidine-4-carboxylate]
- MIC [1, 2]: 7.8 to 15.6 µM (≈ 2.93 to 5.86 µg/mL)
- IC50 (HepG2 cell line; [4]): 20 to 50 µM

Compound: CCOC(=O)C1CCN(c2ccc3cc(-c4cc(OC)cc(OC)c4)ccc3n2)CC1 [Compound 41, ethyl 1-(6-(3,5-dimethoxyphenyl)quinolin-2-yl)piperidine-4-carboxylate]
- MIC [1, 2]: 7.8 to 15.6 µM (≈ 3.28 to 6.56 µg/mL)
- IC50 (HepG2 cell line; [4]): 50 to 100 µM

Compound: CCOC(=O)C1CCN(c2ccc3cc(-c4ccc(C)nc4)ccc3n2)CC1 [Compound 50, ethyl 1-(6-(6-methylpyridin-3-yl)quinolin-2-yl)piperidine-4-carboxylate]
- MIC [1, 2]: < 7.8 µM
- MIC [1, 3]: < 7.8 µM

Compound: CCOC(=O)C1CCN(c2ccc3cc(-c4ccccn4)ccc3n2)CC1 [Compound 55, ethyl 1-(6-(pyridin-2-yl)quinolin-2-yl)piperidine-4-carboxylate]
- MIC [1, 2]: < 7.8 µM
- MIC [1, 3]: < 7.8 µM

Compound: CCOC(=O)C1CCN(c2ccc3cc(-c4ccc(OC)c(F)c4)ccc3n2)CC1 [Compound 58, ethyl 1-(6-(3-fluoro-4-methoxyphenyl)quinolin-2-yl)piperidine-4-carboxylate]
- MIC [1, 2]: < 7.8 µM
- MIC [1, 3]: < 7.8 µM

Compound: CCOC(=O)C1CCN(c2ccc3cc(-c4ccc(Cl)c(F)c4)ccc3n2)CC1 [Compound 63, ethyl 1-(6-(4-chloro-3-fluorophenyl)quinolin-2-yl)piperidine-4-carboxylate]
- MIC [1, 2]: < 7.8 µM
- MIC [1, 3]: < 7.8 µM

Compound: CCOC(=O)C1CCN(c2ccc3cc(-c4cccc(Cl)c4)ccc3n2)CC1 [Compound 64, ethyl 1-(6-(3-chlorophenyl)quinolin-2-yl)piperidine-4-carboxylate]
- MIC [1, 2]: 7.8 to 15.6 µM (≈ 3.08 to 6.16 µg/mL)

Compound: CCOC(=O)C1CCN(c2ccc3cc(-c4ccncc4)ccc3n2)C1 (stereo not shown) [Compound 67, ethyl 1-(6-(pyridin-4-yl)quinolin-2-yl)pyrrolidine-3-carboxylate]
- MIC [1, 2]: 7.8 to 15.6 µM (≈ 2.71 to 5.42 µg/mL)

Compound: CCOC(=O)C1CCN(c2ccc3cc(-c4cc5ccccc5s4)ccc3n2)CC1 [Compound 68, ethyl 1-(6-(benzo[b]thiophen-2-yl)quinolin-2-yl)piperidine-4-carboxylate]
- MIC [1, 2]: 7.8 to 15.6 µM (≈ 3.25 to 6.5 µg/mL)

Compound: CCOC(=O)C1CCN(c2ccc3cc(-c4ccccc4C(F)(F)F)ccc3n2)CC1 [Compound 69, ethyl 1-(6-(2-(trifluoromethyl)phenyl)quinolin-2-yl)piperidine-4-carboxylate]
- MIC [1, 2]: < 7.8 µM
- MIC [1, 3]: < 7.8 µM

Compound: CCOC(=O)C1CCN(c2ccc3cc(-c4ccccc4OC(F)(F)F)ccc3n2)CC1 [Compound 70, ethyl 1-(6-(2-(trifluoromethoxy)phenyl)quinolin-2-yl)piperidine-4-carboxylate]
- MIC [1, 2]: < 7.8 µM

Compound: CCOC(=O)C1CCN(c2ccc3cc(-c4ccc(F)cc4OC)ccc3n2)CC1 [Compound 71, ethyl 1-(6-(4-fluoro-2-methoxyphenyl)quinolin-2-yl)piperidine-4-carboxylate]
- MIC [1, 3]: < 7.8 µM

Compound: CCOC(=O)C1CCN(c2ccc3cc(-c4ccc(OC)c(C(F)(F)F)c4)ccc3n2)CC1 [Compound 72, ethyl 1-(6-(4-methoxy-3-(trifluoromethyl)phenyl)quinolin-2-yl)piperidine-4-carboxylate]
- MIC [1, 2]: 7.8 to 15.6 µM (≈ 3.58 to 7.15 µg/mL)

Compound: CCOC(=O)C1CCN(c2ccc3cc(-c4cccc(F)c4)ccc3n2)CC1 [Compound 74, ethyl 1-(6-(3-fluorophenyl)quinolin-2-yl)piperidine-4-carboxylate]
- REMA MIC [1, 2]: +++ (7.8-15.6)

Compound: CCOC(=O)C1CCN(c2ccc3cc(-c4ccc(F)c(Cl)c4)ccc3n2)CC1 [Compound 75, ethyl 1-(6-(3-chloro-4-fluorophenyl)quinolin-2-yl)piperidine-4-carboxylate]
- MIC [1, 2]: 7.8 to 15.6 µM (≈ 3.22 to 6.44 µg/mL)
